Key:
[1] = biological target: T1, HCV NS3/4A protease complex, BMS strain (UniProt P27958, species not given/STRAIN_BMS); assay: FRET peptide assay to monitor HCV NS3/4A proteolytic activity (BMS strain); assay type: biochemical, Hepatitis C virus (genotype 1a); conditions: NS3/4A BMS strain; read-out: IC50 Range
T1 construct: said of H77 and J4L6S; fused on or other part: A three-lysine solubilising tail at the C-terminus of NS4A and a His tag (pET21b, Ni-NTA purification)
Text: HCV NS3 protease complexes, derived from the BMS strain, H77 strain or J4L6S strain, were generated, as described below. These purified recombinant proteins were generated for use in a homogeneous assay (see below) to provide an indication of how effective compounds of the present disclosure would be in inhibiting HCV NS3 proteolytic activity.
Serum from an HCV-infected patient was obtained from Dr. T. Wright, San Francisco Hospital. An engineered full-length cDNA (compliment deoxyribonucleic acid) template of the HCV genome (BMS strain) was constructed from DNA fragments obtained by reverse transcription-PCR (RT-PCR) of serum RNA (ribonucleic acid) and using primers selected on the basis of homology between other genotype 1a strains. From the determination of the entire genome sequence, a genotype 1a was assigned to the HCV isolate according to the classification of Simmonds et al. (See P Simmonds, K A Rose, S Graham, S W Chan, F McOmish, B C Dow, E A Follett, P L Yap and H Marsden, J. Clin. Microbiol., 31(6), 1493-1503 (1993)). […] The infectious clones, H77 (1a genotype) and J4L6S (1b genotype) were obtained from R. Purcell (NIH) and the sequences are published in Genbank (AAB67036, see Yanagi, M., Purcell, R. H., Emerson, S. U. and Bukh, J. Proc. Natl. Acad. Sci. U.S.A. 94(16), 8738-8743 (1997); AF054247, see Yanagi, M., St Claire, M., Shapiro, M., Emerson, S. U., Purcell, R. H. and Bukh, J, Virology 244 (1), 161-172. (1998)).
The H77 and J4L6S strains were used for production of recombinant NS3/4A protease complexes. DNA encoding the recombinant HCV NS3/4A protease complex (amino acids 1027 to 1711) for these strains were manipulated as described by P. Gallinari et al. (see Gallinari P, Paolini C, Brennan D, Nardi C, Steinkuhler C, De Francesco R. Biochemistry. 38(17):5620-32, (1999)). Briefly, a three-lysine solubilizing tail was added at the 3′-end of the NS4A coding region. The cysteine in the P1 position of the NS4A-NS4B cleavage site (amino acid 1711) was changed to a glycine to avoid the proteolytic cleavage of the lysine tag. Furthermore, a cysteine to serine mutation was introduced by PCR at amino acid position 1454 to prevent the autolytic cleavage in the NS3 helicase domain. The variant DNA fragment was cloned in the pET21b bacterial expression vector (Novagen) and the NS3/4A complex was expressed in Escherichia coli strain BL21 (DE3) (Invitrogen) following the protocol described by P. Gallinari et al. (see Gallinari P, Brennan D, Nardi C, Brunetti M, Tomei L, Steinkuhler C, De Francesco R., J Virol. 72(8):6758-69 (1998)) with modifications. Briefly, the NS3/4A protease complex expression was induced with 0.5 mM Isopropyl β-D-1-thiogalactopyranoside (IPTG) for 22 hours (h) at 20° C. A typical fermentation (1 Liter (L)) yielded approximately 10 grams (g) of wet cell paste. The cells were resuspended in lysis buffer (10 mL/g) consisting of 25 mM N-(2-Hydroxyethyl)Piperazine-N′-(2-Ethane Sulfonic acid) (HEPES), pH 7.5, 20% glycerol, 500 mM Sodium Chloride (NaCl), 0.5% Triton X-100, 1 microgram/milliliter (“μg/mL”) lysozyme, 5 mM Magnesium Chloride (MgCl2), 1 μg/ml Dnasel, 5 mM β-Mercaptoethanol (βME), Protease inhibitor-Ethylenediamine Tetraacetic acid (EDTA) free (Roche), homogenized and incubated for 20 minutes (min) at 4° C. The homogenate was sonicated and clarified by ultra-centrifugation at 235000 g for 1 h at 4° C. Imidazole was added to the supernatant to a final concentration of 15 mM and the pH adjusted to 8.0. The crude protein extract was loaded on a Nickel-Nitrilotriacetic acid (Ni-NTA) column pre-equilibrated with buffer B (25 mM HEPES, pH 8.0, 20% glycerol, 500 mM NaCl, 0.5% Triton X-100, 15 mM imidazole, 5 mM βME). The sample was loaded at a flow rate of 1 mL/min. The column was washed with 15 column volumes of buffer C (same as buffer B except with 0.2% Triton X-100). The protein was eluted with 5 column volumes of buffer D (same as buffer C except with 200 mM Imidazole). […]

[2] = tested on: HCV replicon in HUH-7 cells; assay: HCV replicon FRET assay; assay type: cell-based, Hepatitis C virus (strain 1b); conditions: Hepatitis C virus, Huh-7; HCV replicon, for compounds tested; read-out: EC50 Range
Text: An HCV replicon whole cell system was established as described by Lohmann V, Komer F, Koch J, Herian U, Theilmann L, Bartenschlager R., Science 285(5424):110-3 (1999). This system enabled us to evaluate the effects of our HCV Protease compounds on HCV RNA replication. Briefly, using the HCV strain 1b sequence described in the Lohmann paper (Assession number: AJ238799), an HCV cDNA was synthesized by Operon Technologies, Inc. (Alameda, Calif.), and the full-length replicon was then assembled in plasmid pGem9zf(+) (Promega, Madison, Wis.) using standard molecular biology techniques. The replicon consists of (i) the HCV 5′ UTR fused to the first 12 amino acids of the capsid protein, (ii) the neomycin phosphotransferase gene (neo), (iii) the IRES from encephalomyocarditis virus (EMCV), and (iv) HCV NS3 to NS5B genes and the HCV 3′ UTR. Plasmid DNAs were linearized with Scal and RNA transcripts were synthesized in vitro using the T7 MegaScript transcription kit (Ambion, Austin, Tex.) according to manufacturer's directions. In vitro transcripts of the cDNA were transfected into the human hepatoma cell line, HUH-7. […] Resulting cell lines were characterized for positive and negative strand RNA production and protein production over time.
The HCV replicon FRET assay was developed to monitor the inhibitory effects of compounds described in the disclosure on HCV viral replication. HUH-7 cells, constitutively expressing the HCV replicon, were grown in Dulbecco's Modified Eagle Media (DMEM) (Gibco-BRL) containing 10% Fetal calf serum (FCS) (Sigma) and 1 mg/ml G418 (Gibco-BRL). Cells were seeded the night before (1.5×10^4 cells/well) in 96-well tissue-culture sterile plates. Compound and no compound controls were prepared in DMEM containing 4% FCS, 1:100 Penicillin/Streptomysin (Gibco-BRL), 1:100 L-glutamine and 5% DMSO in the dilution plate (0.5% DMSO final concentration in the assay). Compound/DMSO mixes were added to the cells and incubated for 4 days at 37° C. After 4 days, cells were first assessed for cytotoxicity using alamar Blue (Trek Diagnotstic Systems) for a CC50 reading. The toxicity of compound (CC50) was determined by adding 1/10th volume of alamar Blue to the media incubating the cells. After 4 hours, the fluorescence signal from each well was read, with an excitation wavelength at 530 nm and an emission wavelength of 580 nm, using the Cytofluor Series 4000 (Perspective Biosystems). Plates were then rinsed thoroughly with Phosphate-Buffered Saline (PBS) (3 times 150 μl). The cells were lysed with 25 μl of a lysis assay reagent containing an HCV protease substrate (5× cell Luciferase cell culture lysis reagent (Promega #E153A) diluted to 1× with distilled water, NaCl added to 150 mM final, the FRET peptide substrate (as described for the enzyme assay above) diluted to 10 μM final from a 2 mM stock in 100% DMSO. […]. The plate was then placed into the Cytofluor 4000 instrument which had been set to 340 nm excitation/490 nm emission, automatic mode for 21 cycles and the plate read in a kinetic mode. EC50 determinations were carried out as described for the IC50 determinations.

T1 sequence (P27958 1027-1657, change not shown, one chain of several): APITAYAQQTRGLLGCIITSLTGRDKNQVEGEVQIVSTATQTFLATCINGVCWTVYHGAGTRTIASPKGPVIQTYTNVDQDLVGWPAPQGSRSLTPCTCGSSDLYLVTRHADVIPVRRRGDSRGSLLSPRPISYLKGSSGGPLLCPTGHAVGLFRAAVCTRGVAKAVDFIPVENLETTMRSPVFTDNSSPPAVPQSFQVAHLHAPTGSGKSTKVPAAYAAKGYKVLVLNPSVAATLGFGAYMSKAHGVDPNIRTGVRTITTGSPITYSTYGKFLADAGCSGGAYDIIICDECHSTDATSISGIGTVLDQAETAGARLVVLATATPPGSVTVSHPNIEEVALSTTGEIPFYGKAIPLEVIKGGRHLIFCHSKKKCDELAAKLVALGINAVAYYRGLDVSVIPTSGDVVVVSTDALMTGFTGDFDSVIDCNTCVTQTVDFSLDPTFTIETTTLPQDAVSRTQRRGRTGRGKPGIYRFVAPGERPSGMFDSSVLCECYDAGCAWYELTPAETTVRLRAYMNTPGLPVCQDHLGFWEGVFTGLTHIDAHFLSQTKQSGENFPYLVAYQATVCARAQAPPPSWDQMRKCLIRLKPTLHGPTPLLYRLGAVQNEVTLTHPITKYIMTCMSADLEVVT

Compound | IC50 [1] | melting point | EC50 [2]
CC(C)(C)OC(=O)N[C@H]1COCCC/C=C\[C@@H]2C[C@@]2(C(=O)NS(=O)(=O)C2CC2)NC(=O)[C@@H]2C[C@@H](OC(=O)c3cccc(Oc4ccccc4)c3)CN2C1=O [Compound 13, 18-(3-phenoxybenzoyloxy)-14-tert-butoxycarbonylamino-4-cyclopropylsulfonylaminocarbonyl-2,15-dioxo-3,16-diaza-12-oxatricyclo-[14.3.0.0^4,6]-nonadec-7-ene] | < 100 nM | 123 to 125 °C | 100 to 1000 nM
CC(C)(C)OC(=O)N[C@H]1COCCC/C=C\[C@@H]2C[C@@]2(C(=O)NS(=O)(=O)C2CC2)NC(=O)[C@@H]2C[C@@H](OC(=O)c3ccc(Oc4ccccc4)cc3)CN2C1=O [Compound 14, 18-(4-phenoxybenzoyloxy)-14-tert-butoxycarbonylamino-4-cyclopropylsulfonylaminocarbonyl-2,15-dioxo-3,16-diaza-12-oxatricyclo-[14.3.0.0^4,6]-nonadec-7-ene] | 100 to 1000 nM | 207 to 209 °C | 100 to 1000 nM
CC(C)(C)OC(=O)N[C@H]1CCCCC/C=C\[C@@H]2C[C@@]2(C(=O)NS(=O)(=O)C2CC2)NC(=O)[C@@H]2C[C@@H](OC(=O)c3ccccc3)CN2C1=O [Compound 15, 18-benzoyloxy-14-tert-butoxycarbonylamino-4-cyclopropylsulfonylaminocarbonyl-2,15-dioxo-3,16-diazatricyclo-[14.3.0.0^4,6]-nonadec-7-ene] | < 100 nM | 140 to 142 °C | < 100 nM
CC(C)(C)OC(=O)N[C@H]1CCCCC/C=C\[C@@H]2C[C@@]2(C(=O)NS(=O)(=O)C2CC2)NC(=O)[C@@H]2C[C@@H](OC(=O)c3ccc4c(c3)OCO4)CN2C1=O [Compound 16, 18-(3,4-methylenedioxybenzoyloxy)-14-tert-butoxycarbonylamino-4-cyclopropylsulfonylaminocarbonyl-2,15-dioxo-3,16-diazatricyclo-[14.3.0.0^4,6]-nonadec-7-ene] | < 100 nM | 153 to 155 °C | < 100 nM
CC(C)(C)OC(=O)N[C@H]1CCCCC/C=C\[C@@H]2C[C@@]2(C(=O)NS(=O)(=O)C2CC2)NC(=O)[C@@H]2C[C@@H](OC(=O)c3cccc(OC(F)(F)F)c3)CN2C1=O [Compound 17, 18-[(3-trifluoromethoxy)benzoyloxy]-14-tert-butoxycarbonylamino-4-cyclopropylsulfonylaminocarbonyl-2,15-dioxo-3,16-diazatricyclo-[14.3.0.0^4,6]-nonadec-7-ene] | < 100 nM | 132 to 134 °C | < 100 nM
CC(C)(C)OC(=O)N[C@H]1CCCCC/C=C\[C@@H]2C[C@@]2(C(=O)NS(=O)(=O)C2CC2)NC(=O)[C@@H]2C[C@@H](OC(=O)c3ccc4ccccc4c3)CN2C1=O [Compound 18, 18-(2-naphthoyloxy)-14-tert-butoxycarbonylamino-4-cyclopropylsulfonylaminocarbonyl-2,15-dioxo-3,16-diazatricyclo-[14.3.0.0^4,6]-nonadec-7-ene] | < 100 nM | 156 to 158 °C | < 100 nM
CC(C)(C)OC(=O)N[C@H]1CCCCC/C=C\[C@@H]2C[C@@]2(C(=O)NS(=O)(=O)C2CC2)NC(=O)[C@@H]2C[C@@H](OC(=O)c3ccc(-c4ccccc4)cc3)CN2C1=O [Compound 19, 18-(4-biphenylcarbonyloxy)-14-tert-butoxycarbonylamino-4-cyclopropylsulfonylaminocarbonyl-2,15-dioxo-3,16-diazatricyclo-[14.3.0.0^4,6]-nonadec-7-ene] | < 100 nM | 162 to 164 °C | < 100 nM
COc1ccc(C(=O)O[C@@H]2C[C@H]3C(=O)N[C@]4(C(=O)NS(=O)(=O)C5CC5)C[C@H]4/C=C\CCCCC[C@H](NC(=O)OC(C)(C)C)C(=O)N3C2)cc1 [Compound 20, 18-(4-methoxybenzoyloxy)-14-tert-butoxycarbonylamino-4-cyclopropylsulfonylaminocarbonyl-2,15-dioxo-3,16-diazatricyclo-[14.3.0.0^4,6]-nonadec-7-ene] | < 100 nM | 151 to 153 °C | < 100 nM
CC(C)(C)OC(=O)N[C@H]1CCCCC/C=C\[C@@H]2C[C@@]2(C(=O)NS(=O)(=O)C2CC2)NC(=O)[C@@H]2C[C@@H](OC(=O)c3ccc(Cl)cc3)CN2C1=O [Compound 21, 18-(4-chlorobenzoyloxy)-14-tert-butoxycarbonylamino-4-cyclopropylsulfonylaminocarbonyl-2,15-dioxo-3,16-diazatricyclo-[14.3.0.0^4,6]-nonadec-7-ene] | < 100 nM | 143 to 145 °C | < 100 nM
